“And” between values parts separate entries of the source, which are not always exact repeats. Equal values may be shown once.
Tests used:
SARS-CoV-2 = experiment: microbe, parasite or virus in culture; type: cell-based; settings: for virus titer Mean (%): mean of Exp.1-3; for virus titer (%) of conc 0 / virus titer (pfu/ml): single experiments
[1] = biological target: Zika Virus NS2B/NS3 (bZiPro) (Zika virus, UniProt A0A024B7W1); experiment: Zika virus protease inhibition, fluorometric assay; type: biochemical; settings: 20 μM
Chain of Zika Virus NS2B/NS3 (bZiPro) (A0A024B7W1 1425-1464): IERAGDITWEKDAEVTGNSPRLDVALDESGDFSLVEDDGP
Chain of Zika Virus NS2B/NS3 (bZiPro) (A0A024B7W1 1503-1680): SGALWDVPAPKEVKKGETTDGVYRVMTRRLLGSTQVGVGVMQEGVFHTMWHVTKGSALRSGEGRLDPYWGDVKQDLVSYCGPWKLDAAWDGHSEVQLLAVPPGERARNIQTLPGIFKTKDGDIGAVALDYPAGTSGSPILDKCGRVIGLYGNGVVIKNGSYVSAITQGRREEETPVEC

SARS-CoV-2 M^pro [2] = biological target: T1, SARS-CoV-2 M^pro (Severe acute respiratory syndrome coronavirus 2, UniProt P0DTD1); experiment: Mpro FRET inhibition, continuous fluorometric assay (Fluorolog-3), enzyme from pET21-M^pro vector; type: biochemical; settings: read-out: Ki (μM)^b
M^pro = M^pro (Severe acute respiratory syndrome coronavirus 2, UniProt P0DTD1); experiment: biochemical; type: binding
cathepsin L (CatL) = biological target: T2, cathepsin L (CatL) (Homo sapiens, UniProt P07711); experiment: Cathepsin L inhibition, fluorometric assay; type: biochemical
T2 construct: purchased Calbiochem (Merck Millipore)
T2 sequence (P07711 114-288 limits assumed): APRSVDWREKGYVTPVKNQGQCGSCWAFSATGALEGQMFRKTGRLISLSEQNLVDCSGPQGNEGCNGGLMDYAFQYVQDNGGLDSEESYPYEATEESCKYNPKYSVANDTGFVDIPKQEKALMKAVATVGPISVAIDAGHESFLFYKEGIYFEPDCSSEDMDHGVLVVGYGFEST
T2 sequence (P07711 292-333 limits assumed): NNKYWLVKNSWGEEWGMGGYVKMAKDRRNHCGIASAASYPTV

[3] = biological target: human matriptase (MT-SP1) (Homo sapiens, UniProt Q9Y5Y6); experiment: Matriptase inhibition, fluorometric assay; type: biochemical; settings: 20 μM
Chain of human matriptase (MT-SP1) (Q9Y5Y6 615-855 limits assumed, other chains not shown): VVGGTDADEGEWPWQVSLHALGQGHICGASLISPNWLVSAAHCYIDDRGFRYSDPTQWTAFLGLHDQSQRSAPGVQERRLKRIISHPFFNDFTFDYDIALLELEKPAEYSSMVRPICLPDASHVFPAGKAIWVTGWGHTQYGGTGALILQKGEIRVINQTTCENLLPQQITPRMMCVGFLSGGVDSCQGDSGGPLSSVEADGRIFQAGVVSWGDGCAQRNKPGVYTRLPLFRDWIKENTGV

SARS-CoV-2 M^pro [4] = biological target: T1, SARS-CoV-2 M^pro; experiment: biochemical; settings: M^pro from pMal-M^pro vector

Structure (SMILES): CC(C)C[C@H](NC(=O)OCc1ccccc1)C(=O)N[C@H](/C=C/[N+](=O)[O-])C[C@@H]1CCNC1=O [FGA147]
- EC50 (SARS-CoV-2; Severe acute respiratory syndrome coronavirus 2, 24 h, Huh-7-ACE2, 24h p.t., MOI=0.1): 1900 nM
- virus titer Mean (%) (SARS-CoV-2; conc 0.1): 153.333%
- virus titer (%) of conc 0 (SARS-CoV-2; conc 0.1): 160% and 180% and 120%
- virus titer (pfu/ml) (SARS-CoV-2; conc 0.1): 1600000 pfu/ml and 1800000 pfu/ml and 2400000 pfu/ml
- virus titer Mean (%) (SARS-CoV-2; conc 0.5): 83.3333%
- virus titer (pfu/ml) (SARS-CoV-2; conc 0.5): 1000000 pfu/ml and 1200000 pfu/ml and 600000 pfu/ml
- virus titer Mean (%) (SARS-CoV-2; conc 1): 85%
- virus titer Mean (%) (SARS-CoV-2; conc 5): 0.5017%
- virus titer (%) of conc 0 (SARS-CoV-2; conc 5): 1% and 0.365% and 0.14%
- virus titer Mean (%) (SARS-CoV-2; conc 10): 0.08%
- virus titer (%) of conc 0 (SARS-CoV-2; conc 10): 0.04% and 0.15% and 0.05%
- virus titer Mean (%) (SARS-CoV-2; conc 50): 0.025%
- virus titer (%) of conc 0 (SARS-CoV-2; conc 50): 0.06% and 0.012% and 0.003%
- virus titer Mean (%) (SARS-CoV-2; conc 100): 0.01767%
- virus titer (%) of conc 0 (SARS-CoV-2; conc 100): 0.02% and 0.026% and 0.007%
- virus titer (pfu/ml) (SARS-CoV-2; conc 100): 200 pfu/ml and 260 pfu/ml and 140 pfu/ml
- bZiPro [1]: n.i. (no inhibition (<10%) was observed at a concentration of 20 μM)
- Ki (SARS-CoV-2 M^pro [2]): 1.33 ± 0.05 µM
- Tm of M^pro (M^pro; 25 µM): 46.2 ± 0.1 °C
- change of Tm of M^pro (M^pro; 25 µM): −3.0 ± 0.1 °C
- ΔTm at 25 µM (M^pro; 25 µM, read-out: DTm (°C)): -3 °C
- Tm of M^pro (M^pro; 100 μM): 45.0 ± 0.2 °C
- change of Tm of M^pro (M^pro; 100 μM): −4.2 ± 0.2 °C
- Fraction unfolded (M^pro; 25 mM, 21.5 °C): 0.04278
- Fraction unfolded (M^pro; 25 mM, 22 °C): 0.07148
- Fraction unfolded (M^pro; 25 mM, 22.5 °C): 0.01751
- Fraction unfolded (M^pro; 25 mM, 23 °C): -0.05389
- Fraction unfolded (M^pro; 25 mM, 23.5 °C): -0.01968
- Fraction unfolded (M^pro; 25 mM, 24 °C): 0.09885
- Fraction unfolded (M^pro; 25 mM, 24.5 °C): 0.01751
- Fraction unfolded (M^pro; 25 mM, 25 °C): 0.01414
- Fraction unfolded (M^pro; 25 mM, 25.5 °C): -0.01034
- Fraction unfolded (M^pro; 25 mM, 26 °C): 0.01683
- Fraction unfolded (M^pro; 25 mM, 26.5 °C): 0.04278
- Fraction unfolded (M^pro; 25 mM, 27 °C): 0.07148
- Fraction unfolded (M^pro; 25 mM, 27.5 °C): -0.01421
- Fraction unfolded (M^pro; 25 mM, 28 °C): -0.05389
- Fraction unfolded (M^pro; 25 mM, 28.5 °C): -0.01968
- Fraction unfolded (M^pro; 25 mM, 29 °C): 0.09885
- Fraction unfolded (M^pro; 25 mM, 29.5 °C): 0.01751
- Fraction unfolded (M^pro; 25 mM, 30 °C): -0.01678
- Fraction unfolded (M^pro; 25 mM, 30.5 °C): 0.01948
- Fraction unfolded (M^pro; 25 mM, 31 °C): 0.07312
- Fraction unfolded (M^pro; 25 mM, 31.5 °C): 0.01304
- Fraction unfolded (M^pro; 25 mM, 32 °C): 0.01813
- Fraction unfolded (M^pro; 25 mM, 66.5 °C): 1.064
- Fraction unfolded (M^pro; 25 mM, 67 °C): 1.093
- Fraction unfolded (M^pro; 25 mM, 67.5 °C): 1.004
- Fraction unfolded (M^pro; 25 mM, 68 °C): 1.064
- Fraction unfolded (M^pro; 25 mM, 68.5 °C): 0.9281
- Fraction unfolded (M^pro; 25 mM, 69 °C): 1.033
- Fraction unfolded (M^pro; 25 mM, 69.5 °C): 0.9909
- Fraction unfolded (M^pro; 25 mM, 70 °C): 0.9575
- Fraction unfolded (M^pro; 25 mM, 70.5 °C): 1.011
- Fraction unfolded (M^pro; 25 mM, 71 °C): 1.05
- Fraction unfolded (M^pro; 25 mM, 71.5 °C): 1.061
- Fraction unfolded (M^pro; 25 mM, 72 °C): 0.9314
- Fraction unfolded (M^pro; 25 mM, 72.5 °C): 1.024
- Fraction unfolded (M^pro; 25 mM, 73 °C): 1.027
- Fraction unfolded (M^pro; 25 mM, 73.5 °C): 1.08
- Fraction unfolded (M^pro; 25 mM, 74 °C): 1
- Fraction unfolded (M^pro; 25 mM, 74.5 °C): 0.9793
- Fraction unfolded (M^pro; 25 mM, 75 °C): 0.8934
- Fraction unfolded (M^pro; 25 mM, 75.5 °C): 0.9799
- Fraction unfolded (M^pro; 25 mM, 76 °C): 1.027
- Fraction unfolded (M^pro; 25 mM, 76.5 °C): 0.9678
- Fraction unfolded (M^pro; 25 mM, 77 °C): 0.9735
- Fraction unfolded (M^pro; 25 mM, 77.5 °C): 0.9321
- Fraction unfolded (M^pro; 25 mM, 78 °C): 1.0047
- Fraction unfolded (M^pro; 25 mM, 78.5 °C): 1.022
- Fraction unfolded (M^pro; 25 mM, 79 °C): 0.9456
- Fraction unfolded (M^pro; 25 mM, 79.5 °C): 1.012
- Fraction unfolded (M^pro; 25 mM, 80 °C): 0.9456
- Fraction unfolded (M^pro; 100 mM, 21.5 °C): -0.02084
- Fraction unfolded (M^pro; 100 mM, 22 °C): -0.00506
- Fraction unfolded (M^pro; 100 mM, 22.5 °C): 0.01094
- Fraction unfolded (M^pro; 100 mM, 23 °C): 0.02167
- Fraction unfolded (M^pro; 100 mM, 23.5 °C): -0.03337
- Fraction unfolded (M^pro; 100 mM, 24 °C): -0.04925
- Fraction unfolded (M^pro; 100 mM, 24.5 °C): -0.01302
- Fraction unfolded (M^pro; 100 mM, 25 °C): 0.0174
- Fraction unfolded (M^pro; 100 mM, 25.5 °C): 0.07455
- Fraction unfolded (M^pro; 100 mM, 26 °C): -0.07318
- Fraction unfolded (M^pro; 100 mM, 26.5 °C): 0.02179
- Fraction unfolded (M^pro; 100 mM, 27 °C): -0.00134
- Fraction unfolded (M^pro; 100 mM, 27.5 °C): 0.02966
- Fraction unfolded (M^pro; 100 mM, 28 °C): -0.07997
- Fraction unfolded (M^pro; 100 mM, 28.5 °C): -0.01931
- Fraction unfolded (M^pro; 100 mM, 29 °C): 0.05111
- Fraction unfolded (M^pro; 100 mM, 29.5 °C): 0.02685
- Fraction unfolded (M^pro; 100 mM, 30 °C): 0.06732
- Fraction unfolded (M^pro; 100 mM, 30.5 °C): -0.02735
- Fraction unfolded (M^pro; 100 mM, 31 °C): 0.01656
- Fraction unfolded (M^pro; 100 mM, 31.5 °C): -0.02084
- Fraction unfolded (M^pro; 100 mM, 32 °C): -0.00506
- Fraction unfolded (M^pro; 100 mM, 66.5 °C): 1.07
- Fraction unfolded (M^pro; 100 mM, 67 °C): 1.013
- Fraction unfolded (M^pro; 100 mM, 67.5 °C): 0.9992
- Fraction unfolded (M^pro; 100 mM, 68 °C): 1.02
- Fraction unfolded (M^pro; 100 mM, 68.5 °C): 1.071
- Fraction unfolded (M^pro; 100 mM, 69 °C): 0.9861
- Fraction unfolded (M^pro; 100 mM, 69.5 °C): 1.008
- Fraction unfolded (M^pro; 100 mM, 70 °C): 1.064
- Fraction unfolded (M^pro; 100 mM, 70.5 °C): 0.8899
- Fraction unfolded (M^pro; 100 mM, 71 °C): 1.057
- Fraction unfolded (M^pro; 100 mM, 71.5 °C): 1.048
- Fraction unfolded (M^pro; 100 mM, 72 °C): 1.1085
- Fraction unfolded (M^pro; 100 mM, 72.5 °C): 1.099
- Fraction unfolded (M^pro; 100 mM, 73 °C): 0.9672
- Fraction unfolded (M^pro; 100 mM, 73.5 °C): 1.047
- Fraction unfolded (M^pro; 100 mM, 74 °C): 0.9312
- Fraction unfolded (M^pro; 100 mM, 74.5 °C): 1.062
- Fraction unfolded (M^pro; 100 mM, 75 °C): 1.063
- Fraction unfolded (M^pro; 100 mM, 75.5 °C): 1.018
- Fraction unfolded (M^pro; 100 mM, 76 °C): 0.9202
- Fraction unfolded (M^pro; 100 mM, 76.5 °C): 1.013
- Fraction unfolded (M^pro; 100 mM, 77 °C): 0.9957
- Fraction unfolded (M^pro; 100 mM, 77.5 °C): 1.0714
- Fraction unfolded (M^pro; 100 mM, 78 °C): 0.8845
- Fraction unfolded (M^pro; 100 mM, 78.5 °C): 0.9237
- Fraction unfolded (M^pro; 100 mM, 79 °C): 1.0367
- Fraction unfolded (M^pro; 100 mM, 79.5 °C): 0.9498
- Fraction unfolded (M^pro; 100 mM, 80 °C): 0.9799
- Ki (cathepsin L (CatL)): 1990 ± 107 nM
- MT-SP1 [3]: n.i. (no inhibition (<10%) was observed at a concentration of 20 μM)
- Ki (SARS-CoV-2 M^pro [4]): 2.18 ± 0.19 µM
